Laboratory results taken from patent US11879137B2, “Treatment of type 1 diabetes and autoimmune diseases or disorders” (THE CHILDREN'S MEDICAL CENTER CORPORATION, priority 2017, dated 2024).

Key:
[1] = test system: PD-L1 on CD34+ cells; experiment: Prostaglandin library screening and FACS of PD-L1 on human CD34+ cells; format: cell-based; conditions: for PD-L1 expression by FACS analysis: CD34+ cells, 10 μM pulsed at 24 and 48 hours
Excerpt: FIGS. 17A-17J show prostaglandins enhance PD-L1 expression on human CD34^+ cells. (FIG. 17A-17B) Results of screening of a prostaglandin small molecule library tested for the ability to upregulate PD-L1 (MFI) on CD34^+ cells obtained from T1D patients. The schematic of the experimental design is shown in (A). The 3-color coding shown in (FIG. 17B) represents lowest PD-L1 MFI values (blue), median PD-L1 MFI values (pink) and highest PD-L1 MFI values (red). (FIG. 17C-17D) Representative flow cytometric analysis and quantitative bar graph of PD-L1 expression on CD34^+ cells from T1D patients pre- and post-pharmacologic modulation with PGE2 as compared to CD34^+ cells obtained from healthy controls. (FIG. 17E) PD-L1 and CXCR4 expression (mRNA) fold change was quantified for CD34^+ cells pre- and post-modulation with PGE2. (FIG. 17F) Migration assay using CD34^+ cells pre- and post-modulation with PGE2. (FIG. 17G) Confocal imaging of CD34^+ cells pre- and post-modulation with PGE2, showing DAPI (in blue) and PD-L1 (in green) staining. 63× magnification. Scale bar, 50 (FIG. 17H) IDO-1 expression (mRNA) fold change was quantified for CD34^+ cells pre- and post-modulation with PGE2. (FIG. 17I-17J) Representative flow cytometric analysis (FIG. 17I) and quantitative bar graph (FIG. 17J) of PD-L1 expression on CD34^+ cells from T1D patients pre- and post-pharmacologic modulation with 4 small molecule PGE2 agonists. All data are expressed as mean±SEM. *P<0.05, **P<0.001. Abbreviations: MFI, mean fluorescence intensity.
Pharmacological modulation of human CD34+ cells. 1×105 of isolated human CD34+ HSPCs (purity 99%) were cultured in 200 μl of StemSpan SFEM II media (SEMCELL Technologies Inc., Cambridge, MA, USA), and each compound in the Prostaglandin Screening Library II (Cayman Chemicals, Ann Arbor, MI), was added individually at day 0 and at day 1 at a concentration of 10 μM as previously reported by the inventors and others (9, 21). In another assay, isolated CD34+ cells from freshly isolated human PBMCs or from cryopreserved PBMCs, and processed as described earlier, were cultured in the presence of a cocktail of cytokines containing: 10 μg/ml heparin (SEMCELL Technologies Inc., Cambridge, MA, USA), 10 ng/ml human SCF (Miltenyi Biotec, San Diego, CA), 20 ng/ml human TPO (Miltenyi Biotec, San Diego, CA), 10 ng/ml human FGF-1 (Miltenyi Biotec, San Diego, CA), 100 ng/ml IGFBP2 (R&D Systems, Inc., Minneapolis, MN), and 500 ng/ml Angptl3 (R&D Systems, Inc., Minneapolis, MN). PGE2 (PromoKine, PromoCell Gmbh, Germany) was added by pulsing the culture at 0, 24h, 72h and 6 days with 2 μl of diluted PGE2 (10 μM). Cells were cultured for 7 days at 37° C. in 5% CO2, and CD34+ cells were then subjected to FACS analysis and were run on a FACSCelesta™ (Becton Dickinson, Franklin Lakes, NJ). Data were analyzed using FlowJo software version 8.7.3 (Treestar, Ashland, OR). The different cytokines used here and their related concentration as well as the choice of the incubation timing was used as previously reported in the literature (22).
(§1) Prostaglandin library screening. PGE2 has been described as a small molecule known to enhance the homing and engraftment of HSPCs. It was therefore sought to screen all known types of prostaglandins using the Prostaglandin Screening Library II, which contains 64 small molecules. Each small molecule contained in the library was first screened for its capacity to upregulate PD-L1 in human CD34+ cells isolated from T1D patients (FIG. 17A-17B). CD34+ cells isolated from T1D patients were cultured in StemSpan SFEMII and pulsed with each PG (prostaglandin) small molecule contained in the aforementioned library at a concentration of 10 μM at 24 and 48h. Using FACS analysis, the MFI (mean fluorescence intensity) of PD-L1 expression was calculated following treatment with each small molecule used to modulate CD34+ cells as compared to untreated/unmodulated CD34+ cells (FIG. 17B). […]

[2] = test system: CD34+ cells; experiment: Transwell migration assay toward SDF-1; format: cell-based, human; conditions: SDF-1, 2 hours
Protocol: Migration assay. Transwell migration assays were performed on PGE2-modulated HSPCs compared to unmodulated HSPCs in the presence of 0 to 50 ng/ml SDF-1 (R&D Systems, Minneapolis, MN). In brief, cells were suspended in 0.5% BSA Phenol Red-Free RPMI and plated in the upper chambers of an HTS-Transwell-96-well permeable support plate (Corning, Acton, MA) and incubated at 37° C. in 5% CO2 for 2 hours. After 2 hours incubation, migrated cells were counted using BD TruCount (BD Biosciences) by flow cytometry.
as §1

SMILES	capacity to upregulate PD-L1 (MFI) in library screening ([1]; 10 μM, CD34+ cells from T1D patients)	PD-L1 expression by FACS analysis [1]	homing potential in migration assay [2]
CCCCC(C)(C)[C@H](O)/C=C/[C@H]1[C@H](O)CC(=O)[C@@H]1C/C=C\CCCC(=O)O [16,16-dimethyl PGE2]	strongest capacity	robust upregulation	
CCCCC[C@H](O)/C=C/[C@H]1[C@H](O)CC(=O)[C@@H]1C/C=C\CCCC(=O)O [PGE2, prostaglandin E2]		slight increase	substantial increase
